Experimental data from patent US8889423B2, “Method for analysis of compound-binding ability of protein” (Eisai R & D Management Co., Ltd., priority 2005, dated 2014).

Assays:
[1] = molecular target: T1, MTAP (5′-methylthioadenosine phosphorylase) (Homo sapiens, UniProt Q13126); assay: Affinity chromatography on immobilized compound with urea step elution, LC/MS peak intensity ratio; type: binding; details: for peak intensity ratio (peak area of the labeled protein/peak area of the non-labeled protein): HCT116 extract
T1 construct: Insoluble fractions were removed by centrifugation to prepare soluble fractions; endogenous in cells; host or cells: HCT116
T1 sequence (Q13126 1-283): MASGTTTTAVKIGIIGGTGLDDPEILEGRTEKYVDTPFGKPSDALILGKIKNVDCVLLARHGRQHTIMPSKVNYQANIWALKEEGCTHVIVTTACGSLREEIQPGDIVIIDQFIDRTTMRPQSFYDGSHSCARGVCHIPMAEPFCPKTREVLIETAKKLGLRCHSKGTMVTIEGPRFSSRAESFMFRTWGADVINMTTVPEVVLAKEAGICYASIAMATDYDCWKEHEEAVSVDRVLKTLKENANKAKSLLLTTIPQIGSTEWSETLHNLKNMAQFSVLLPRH
Description: (§1) About 10 mg of the compound represented by formula (1):
(§2) [drawing 1] was dissolved in 4 mL of tetrahydrofuran (THF) and 4 mL of methanol (MeOH), and 4 mL of water was added thereto.
(§3) 6 mL of the resultant solution was diluted with 18 mL of THF/MeOH/Water=1/1/1 (v/v/v), and was added to 25 mL of Affi-gel 10 (produced by BioRad, Cat No. 153-6099), which had been washed with THF/MeOH/Water=1/1/1 (v/v/v) beforehand.
(§4) To the resultant substance, 100 μL of triethylamine (produced by Tokyo Chemical Industry Co., Ltd., Cat No. T0424) was added thereto and incubated at room temperature for 2 hours. Then, 500 μL of 2-aminoethanol (produced by Tokyo Chemical Industry Co., Ltd., Cat No. A0297) was added thereto and incubated at room temperature for 2 hours. The resultant gel was fully washed with THF/MeOH/Water=1/1/1 (v/v/v), and was stored at 4° C. after replacement with a methanol solution. The resultant gel was set to be used as an affinity gel. By this reaction, the compound represented by formula (1) was bound at a ratio of about 0.2 mg for 1 mL of gel. A column was filled with about 0.9 ml of the produced affinity gel. Thus, an affinity chromatography column was produced.
(§5) Human colon glandular cancer cell line HCT116 (ATCC) was cultured. Used as a medium was RPMI-1640 (Sigma, R-7130) containing 10% fetal calf serum (MOREGATE, BATCH 32300102), 100 U/ml of penicillin G; and 100 μg/ml of streptomycin (Invitrogen, 15140-122). As for the RPMI-1640 medium, a powder medium which contains none of L-glutamine, L-lysine, L-methionine, L-leucine, and sodium hydrogen carbonate was selected. Then, components absent in the medium were added. The absent components were added as follows. L-glutamine (produced by Sigma, G-8540), L-lysine (produced by Sigma, L-9037), L-methionine (produced by Sigma, M-5308), and sodium hydrogen carbonate (Wako Pure Chemical Industries, Ltd., 191-01305) were added in 0.3 g/L, 0.04 g/L, 0.015 g/L, and 2 g/L, respectively; and then naturally-occurring L-leucine and L-leucine labeled with a stable isotope ^13C (six) (Cambridge Isotope Laboratories, CLM-2262) were separately added in 0.05 g/L. Each medium thus prepared was used to culture cells in 5% CO2 at 37° C. The cells obtained by such culturing were used in the following tests as cells cultured in a naturally-occurring medium and cells cultured in a stable isotope medium, respectively.
(§6) Cells cultured in the naturally-occurring medium were provided in an amount corresponding to ten 15-cm diameter plates. Cells cultured in the stable isotope medium were provided in an amount corresponding to ten 15-cm diameter plates. The cells were collected. The cells were solubulized with about 2 ml of M-PER (PIERCE, 78501) per 15-cm diameter plate. Insoluble fractions were removed by centrifugation to prepare soluble fractions. The soluble fractions thus obtained were set to be used as a protein extract liquid metabolically labeled with a stable isotope and a protein extract liquid not metabolically labeled with a stable isotope, respectively. To these protein extract liquids (about 20 ml each), a quadruple amount of PBS was added (final amount: about 100 ml each).
(§7) Next, about 0.9 ml of affinity gel was put into an open column, and a diluted protein extract liquid metabolically labeled with a stable isotope was added to the open column from above and was naturally dropped. Then, 10 ml of PBS containing 1 M NaCl was flown to this column. Next, 7 ml of PBS containing 1 M urea and 0.01% CHAPS, 7 ml of PBS containing 2 M urea and 0.01% CHAPS, 7 ml of PBS containing 4 M urea and 0.01% CHAPS, and 7 ml of PBS containing 8 M urea and 0.01% CHAPS were sequentially flown, and the eluted fractions were collected (4 fractions in total).
(§8) In parallel with the above operation, a diluted protein extract liquid not metabolically labeled with a stable isotope was added to 0.9 ml of affinity gel from above and was naturally dropped. Then, 10 ml of PBS containing 1 M NaCl was flown to this column. […]

[2] = molecular target: T2, PCMT1 (protein-L-isoaspartate (D-aspartate) O-methyltransferase) (Homo sapiens, UniProt P22061); assay: as above; type: binding; details: for peak intensity ratio (peak area of the labeled protein/peak area of the non-labeled protein): HCT116 extract
T2 construct: Insoluble fractions were removed by centrifugation to prepare soluble fractions; endogenous in cells; host or cells: HCT116
Description: as §1, §2, §3, §4, §5, §6, §7, §8

[3] = molecular target: T3, AHCY (S-adenosylhomocysteine hydrolase) (Homo sapiens, UniProt P23526); assay: as above; type: binding; details: for peak intensity ratio (peak area of the labeled protein/peak area of the non-labeled protein): HCT116 extract
T3 construct: Insoluble fractions were removed by centrifugation to prepare soluble fractions; endogenous in cells; host or cells: HCT116
T3 sequence (P23526 2-432 limits assumed): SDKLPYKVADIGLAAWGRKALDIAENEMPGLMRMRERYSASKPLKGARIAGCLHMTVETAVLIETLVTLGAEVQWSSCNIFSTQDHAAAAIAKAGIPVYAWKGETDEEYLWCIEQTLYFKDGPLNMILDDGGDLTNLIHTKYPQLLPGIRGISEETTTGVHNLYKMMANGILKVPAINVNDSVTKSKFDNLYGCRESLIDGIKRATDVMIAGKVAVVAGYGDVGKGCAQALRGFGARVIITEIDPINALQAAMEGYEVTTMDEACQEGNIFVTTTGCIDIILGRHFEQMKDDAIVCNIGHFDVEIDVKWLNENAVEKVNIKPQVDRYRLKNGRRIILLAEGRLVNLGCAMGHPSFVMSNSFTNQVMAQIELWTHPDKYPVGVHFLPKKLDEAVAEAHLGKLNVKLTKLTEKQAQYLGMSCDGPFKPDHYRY
Description: as §1, §2, §3, §4, §5, §6, §7, §8

[4] = molecular target: T4, SPRY4 (sprouty homolog 4) (Homo sapiens, UniProt Q9C004); assay: as above; type: binding; details: for peak intensity ratio (peak area of the labeled protein/peak area of the non-labeled protein): HCT116 extract
T4 construct: Insoluble fractions were removed by centrifugation to prepare soluble fractions; endogenous in cells; host or cells: HCT116
T4 sequence (Q9C004 1-299): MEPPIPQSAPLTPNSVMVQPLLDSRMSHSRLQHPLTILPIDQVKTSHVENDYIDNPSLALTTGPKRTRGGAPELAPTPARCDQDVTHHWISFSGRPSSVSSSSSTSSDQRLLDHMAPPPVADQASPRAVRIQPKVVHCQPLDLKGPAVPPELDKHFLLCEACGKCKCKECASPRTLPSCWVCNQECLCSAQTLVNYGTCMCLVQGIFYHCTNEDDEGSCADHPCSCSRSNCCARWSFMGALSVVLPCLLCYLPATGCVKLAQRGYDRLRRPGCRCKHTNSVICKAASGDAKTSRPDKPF
Description: as §1, §2, §3, §4, §5, §6, §7, §8

[5] = system: OS9 (amplified in osteosarcoma isoform 1-4 precursor); assay: as above; type: binding, Human; details: for peak intensity ratio (peak area of the labeled protein/peak area of the non-labeled protein): HCT116 extract
Description: as §1, §2, §3, §4, §5, §6
Next, about 0.9 ml of affinity gel was put into an open column, and a diluted protein extract liquid metabolically labeled with a stable isotope was added to the open column from above and was naturally dropped. Then, 10 ml of PBS containing 1 M NaCl was flown to this column. […]

[6] = system: proteins of HCT116 cell extract (AHCY, PCMT1, OS9, SPRY4); assay: Ranking of binding ability of proteins to the immobilized compound; design: species or system Human; details: from highest-peak fraction and from ratios in the 8 M urea fraction
Description: as §7
In parallel with the above operation, a diluted protein extract liquid not metabolically labeled with a stable isotope was added to 0.9 ml of affinity gel from above and was naturally dropped. Then, 10 ml of PBS containing 1 M NaCl was flown to this column. Next, 12 ml of PBS containing 8 M urea and 0.01% CHAPS was flown, and the eluted fractions were collected to be used as an internal standard fraction.
3 ml of the internal standard fraction was added to each of the four fractionated samples and mixed together. […]
Quantitation was to be performed at the peak of the peptides containing leucine. […] Peaks forming a pair were found, and the peak intensity ratio thereof was automatically calculated. In this manner, proteins were identified and the peak intensity ratio was calculated using the constructed software. […]

T2 sequence (P22061 whole entry): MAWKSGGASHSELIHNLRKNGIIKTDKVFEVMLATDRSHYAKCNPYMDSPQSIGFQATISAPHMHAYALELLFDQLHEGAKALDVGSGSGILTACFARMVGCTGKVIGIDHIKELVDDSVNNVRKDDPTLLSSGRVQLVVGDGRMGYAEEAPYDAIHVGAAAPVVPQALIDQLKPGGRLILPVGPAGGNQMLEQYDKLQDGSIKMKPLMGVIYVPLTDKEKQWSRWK

NCc1ccc(S(=O)(=O)Nc2cccc3c(Cl)c[nH]c23)cc1 [formula (1)]
peak intensity ratio (peak area of the labeled protein/peak area of the non-labeled protein) ([1]; 1M Urea fraction): 0.77 | peak intensity ratio (peak area of the labeled protein/peak area of the non-labeled protein) ([1]; 2M Urea fraction): 0.78 | peak intensity ratio (peak area of the labeled protein/peak area of the non-labeled protein) ([1]; 4M Urea fraction): 0.71 | peak intensity ratio (peak area of the labeled protein/peak area of the non-labeled protein) ([1]; 8M Urea fraction): 0.88 | peak intensity ratio ([1]; all the four urea fractions): about 0.8 | peak intensity ratio (peak area of the labeled protein/peak area of the non-labeled protein) ([2]; 1M Urea fraction): 1.14 | peak intensity ratio (peak area of the labeled protein/peak area of the non-labeled protein) ([2]; 2M Urea fraction): 1.57 | peak intensity ratio (peak area of the labeled protein/peak area of the non-labeled protein) ([2]; 4M Urea fraction): 2.52 | peak intensity ratio (peak area of the labeled protein/peak area of the non-labeled protein) ([2]; 8M Urea fraction): 1.02 | fraction with the highest peak ([2]; elution with 1, 2, 4, 8 M urea): 4 M urea fraction | peak intensity ratio (peak area of the labeled protein/peak area of the non-labeled protein) ([3]; 1M Urea fraction): 0.63 | peak intensity ratio (peak area of the labeled protein/peak area of the non-labeled protein) ([3]; 2M Urea fraction): 0.99 | peak intensity ratio (peak area of the labeled protein/peak area of the non-labeled protein) ([3]; 4M Urea fraction): 1.88 | peak intensity ratio (peak area of the labeled protein/peak area of the non-labeled protein) ([3]; 8M Urea fraction): 3.27 | fraction with the highest peak ([3]; elution with 1, 2, 4, 8 M urea): 8 M urea fraction | peak intensity ratio (peak area of the labeled protein/peak area of the non-labeled protein) ([4]; 1M Urea fraction): 3.70 | peak intensity ratio (peak area of the labeled protein/peak area of the non-labeled protein) ([4]; 2M Urea fraction): 1.17 | peak intensity ratio (peak area of the labeled protein/peak area of the non-labeled protein) ([4]; 4M Urea fraction): 0.83 | peak intensity ratio (peak area of the labeled protein/peak area of the non-labeled protein) ([4]; 8M Urea fraction): 0.67 | fraction with the highest peak ([4]; elution with 1, 2, 4, 8 M urea): 1 M urea fraction | peak intensity ratio (peak area of the labeled protein/peak area of the non-labeled protein) ([5]; 1M Urea fraction): 1.24 | peak intensity ratio (peak area of the labeled protein/peak area of the non-labeled protein) ([5]; 2M Urea fraction): 3.57 | peak intensity ratio (peak area of the labeled protein/peak area of the non-labeled protein) ([5]; 4M Urea fraction): 1.62 | peak intensity ratio (peak area of the labeled protein/peak area of the non-labeled protein) ([5]; 8M Urea fraction): 0.73 | fraction with the highest peak ([5]; elution with 1, 2, 4, 8 M urea): 2 M urea fraction | binding ability of the proteins to the compound, ordered from highest to lowest [6]: AHCY, PCMT1, OS9 and SPRY4
